Results on one molecule are retold here after PMC12447631 (Environmental science & technology, 2018).

This test deals with T1, MGS0156 (uncultured organism, UniProt A0A0G3FEJ8).
T1 sequence (A0A0G3FEJ8 75-421): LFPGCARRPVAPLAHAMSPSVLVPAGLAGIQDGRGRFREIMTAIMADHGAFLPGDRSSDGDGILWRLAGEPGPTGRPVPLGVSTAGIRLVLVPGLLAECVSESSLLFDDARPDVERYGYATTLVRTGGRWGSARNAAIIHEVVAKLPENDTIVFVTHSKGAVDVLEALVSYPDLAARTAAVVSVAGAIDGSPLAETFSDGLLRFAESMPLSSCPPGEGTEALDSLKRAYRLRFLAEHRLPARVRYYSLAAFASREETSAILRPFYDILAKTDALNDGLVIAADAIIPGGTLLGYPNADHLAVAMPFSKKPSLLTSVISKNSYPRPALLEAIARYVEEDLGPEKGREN
As to the kind of experiment: spectrophotometric pNP ester hydrolysis. It counts as biochemical. To be noted: 0.5 mM substrate, 50 mM HEPES-K pH 8.0, 30 °C.

With `CCCCCCCC(=O)Oc1ccc([N+](=O)[O-])cc1` [pNP-octanoate], the specific activity entry was “MGS0156 was most active against pNP -octanoate and pNP -decanoate (C8–C10 substrates)”.
